Experimental data: patent US8916561B2, “Substituted quinoxaline compounds for the inhibition of PASK” (BioEnergenix, LLC, priority 2011, dated 2014)

Assays:
PASK = target: T1, PASK (UniProt #Q96RG2; human recombinant N-terminal GST tagged construct, residues 879-1323) (Homo sapiens, UniProt Q96RG2); experiment: PASK ATP Radiochemical Assay; format: biochemical; conditions: 33P-ATP radiochemical assay, Myelin Basic Protein substrate; read-out: IC50 Kinase Domain
T1 construct: human recombinant N-terminal GST tagged construct, residues 879-1323; GST (N); host or cells: insect cells
Description: Purified PASK (UniProt #Q96RG2; human recombinant N-terminal GST tagged construct, residues 879-1323) from insect cells (final concentration 5 nM) is added to freshly prepared Base Reaction Buffer containing 20 mM HEPES (pH 7.5), 10 mM MgCl2, 1 mM EGTA, 0.02% Brij35, 0.02 mg/ml BSA, 0.1 mM Na3VO4, 2 mM DTT, 1% DMSO and Myelin Basic Protein (20 μM final). Test compounds in DMSO are then added and the mixture, followed by delivery of ^33P-ATP (specific activity 0.01 μCi/μl final) to initiate the reaction. The kinase reaction is incubated for 120 min at room temperature. The entire reaction mixture is washed through onto a P81 Phosphocellulose paper and washed three times for 10 minutes in 75 mM phosphoric acid and once in methanol prior to drying and scintillation counting.

PASK (Invitrogen) = target: T2, PASK (Invitrogen) (Homo sapiens, UniProt Q96RG2); experiment: PAS Kinase FRET Assay; format: biochemical; conditions: TR-FRET (665 nm/615 nm), Ulight-peptide substrate; read-out: IC50 Kinase Domain
T2 construct: IC50 Kinase Domain; purchased Invitrogen
From the text: The aim of the FRET assay is to determine the inhibition potential of test compounds on targeted kinase. This assay platform provides a homogenous screening method for measuring kinase activity by quantitating the amount of phospho-substrate in solution following a kinase reaction.
In the presence of kinase and ATP, the Ulight-peptide is phosphorylated and captured by an anti-phospho-substrate antibody, which brings the Eu chelate donor and Ulight acceptor dyes into close proximity. Upon excitation at 340 nm, the Eu chelate transfers its energy to the Ulight dye, resulting in a fluorescent light emission at 665 nm.
Titration of kinase at 1 mM ATP was achieved via the following protocol. After making serial three-fold dilutions of PASK (Invitrogen) in reaction buffer across the plate; 5 μl of kinase dilution and 5 μl substrate/ATP mix were added to the wells of the white Optiplate-384 (PerkinElmer). The contents of the plate were incubated at RT for 1 h. The reaction was stopped by adding 5 μl of stop solution to each test well followed by mixing and incubation at RT for 10 minutes. 5 μl of detection mix (detection antibody diluted in detection butler) was added; the contents of the plate were mixed and then incubated in the dark for 1 hour at RT. The signal was recorded at TR-FRET mode (665 nm/615 nm), The results were graphed to calculate the EC50.
Titration of ATP at the EC50 concentration of kinase to determine ATP Km,app. was performed using the following method. After making serial dilutions of ATP (Invitrogen), 5 μl of ATP dilution and 5 μl substrate/kinase mix were added to the wells of the white Optiplate-384 (PerkinElmer). The contents of the plate were and incubated at RT for 1 h. The reaction was stopped by adding 5 μl of stop solution to each test well followed by mixing and incubation at RT for 10 minutes. 5 μl of detection mix (detection antibody diluted in detection buffer) was added; the contents of the plate were mixed and then incubated in the dark for 1 hour at RT. The signal was recorded at TR-FRET mode (665 nm/615 nm). The results were graphed to calculate the EC50 as the ATP Km,app.
Compound screening was done via the following method. 10 mM stock solution of test compound in DMSO was prepared by dissolving test compound in DMSO at RT for 1 hour, and then sonicating at 100% output for 8 minutes. If compound is not soluble under this condition, it was diluted to 3 mM. Kinase reaction buffer was prepared containing 10 mM MgCl2, 50 mM HEPES, 1 EGTA, 0.01% TWEEN-20, 2 mM WT. Serial dilutions of the test compounds were prepared at 4× final assay concentrations using Freedom EVO200® dispensing system as follows: 12×10^−5M, 4×10^−5 M, 1.33×10^−5M, 4.44×10^−6 M. 1.48×10^−6 M, 4.92×10^−7 M, 1.65×10^−7 M, […], 1.82×10^−8 M, 6.09×10^−9, 2.03×10^−9 M. Test compounds (2.5 μl at 4× the final assay concentration) was added to wells using Freedom EVO200® dispensing system. As a positive control, 2.5 μl of positive compound was added to assay wells, and 2.5 μl of DMSO to assay wells as vehicle control. Kinase solution was prepared in reaction buffer at 2× final assay concentration. Kinase solution (5 μl) was added to each well of the assay plate. The substrate and ATP solution was prepared in kinase reaction buffer at 4× final assay concentration. The kinase reaction was started by adding 2.5 μl of substrate+ATP mix solution to each well of the assay plate. The plate is mixed on a plate shaker; then covered and allowed to react for 2 hours in the dark at 25° C. without shaking. The reaction was stopped by adding 5 μl of stop solution to each test well followed by mixing and incubation at RT for 10 minutes in the dark. 5 μl of detection mix (detection antibody diluted in detection buffer) was added; the contents of the plate were mixed and then incubated in the dark for 1 hour at RT. The signal was recorded at TR-FRET mode (665 nm/615 nm).

hPASK [1] = target: T3, hPASK (Homo sapiens, UniProt Q96RG2); experiment: PAS Kinase Luminescence Assay (Kinase-Glo); format: biochemical; design: IC50 Kinase Domain; host or cells: insect cells; conditions: MBP substrate, read-out: IC50 Kinase Domain
Description: One assay for purified hPASK activity utilizes the Kinase-Glo Luminescent Kinase Assay (Promega), which quantifies the amount of ATP remaining in solution following kinase reaction. The assay is carried out in a 96-well plate format and is performed by adding a volume of Kinase-Glo Reagent (Promega, catalog #V3771) equal to the volume of solution in the well of a completed kinase reaction. Kinase-Glo reagent contains Luciferase and its substrate. After addition to a kinase reaction it allows to measure luminescence. The amount of ATP left in solution at the time of Kinase-Glo Plus addition is directly proportional to the luminescence that is measured in each well, and inversely correlated with kinase activity.
Purified hPASK from insect cells (0.02 μg) is added to a 50 μL reaction mix containing 40 mM HEPES (pH 7.0), 100 mM KCl, 5 mM MgCl2, 1 mM DTT and 1 μg of MBP protein. Inhibitory compounds are then added and the mixture is incubated for 10 min at 25° C. before adding 5 μL of ATP (at desired concentration). The reaction is allowed to proceed at 25° C. for 1 hour before adding 50 μL of Kinase-Glo reagent. The luminescence is measured as soon as 10 minutes after Kinase-Glo reagent is added.
Target sequence in this assay (Q96RG2 999-1251 limits assumed): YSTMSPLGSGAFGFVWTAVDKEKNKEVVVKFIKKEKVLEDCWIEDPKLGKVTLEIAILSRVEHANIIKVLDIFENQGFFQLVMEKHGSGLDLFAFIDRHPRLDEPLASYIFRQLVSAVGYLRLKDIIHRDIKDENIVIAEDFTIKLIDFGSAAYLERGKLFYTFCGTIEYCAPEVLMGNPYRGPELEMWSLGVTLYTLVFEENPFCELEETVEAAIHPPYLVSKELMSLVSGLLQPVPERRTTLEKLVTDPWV

hPASK [2] = target: T3, hPASK; experiment: Cell assay for hPASK activity, phospho-AKT substrate antibody; format: cell-based; design: expressed in transfected cells; host or cells: HEK293T; conditions: HEK293T cells transfected with V5-tagged PASK, phospho-AKT substrate antibody Western blot
Description: The assay applies the ability of PASK to autophoshorylate in vivo on the sequence recognized by phospho-Akt substrate antibody (110B7E, Cell Signaling). Cell line HEK293T is transfected with vector (pcDNA 3.1-PASK) expressing V5-tagged wilde-type of PASK. Transfected cells are then treated with putative inhibitors of PASK. Twenty-four hours post treatment cells are lysed and PASK is separated from cellular proteins by immunoprecipitation with V5-conjugated beads (Sigma). PASK is released from immunocomlexes, separated on the SDS-PAGE gel and transferred on nitrocellulose membrane. Fraction of PASK phosphorylated on phospho-AKT Substrate site(s) is determined by probing with phospho-AKT antibody and normalized to total PASK level present in the same immunoprecipitates. We have shown the correlation between phosphorylation of phospho-AKT Substrate sequence and inhibition of PASK activity in vivo.
HEK293T cells are maintained and propagated in 10 cm dish in 10 ml of DMEM/10% FBS, split and re-seeded in 6 well plate (10^6 cells/well) in 2 ml of DMEM/10% FBS. Cells are transfected 18 hours post plating with lug of construct expressing wild-type of hPASK using lipofectamine 2000 according to the manufacturers protocol (Invitrogen). Cells expressing PASK are treated either with DMSO or PASK inhibitors. […] Intensities of the bands are quantitated and data normalized.
Target sequence in this assay (Q96RG2 whole entry, the tested form may be a part): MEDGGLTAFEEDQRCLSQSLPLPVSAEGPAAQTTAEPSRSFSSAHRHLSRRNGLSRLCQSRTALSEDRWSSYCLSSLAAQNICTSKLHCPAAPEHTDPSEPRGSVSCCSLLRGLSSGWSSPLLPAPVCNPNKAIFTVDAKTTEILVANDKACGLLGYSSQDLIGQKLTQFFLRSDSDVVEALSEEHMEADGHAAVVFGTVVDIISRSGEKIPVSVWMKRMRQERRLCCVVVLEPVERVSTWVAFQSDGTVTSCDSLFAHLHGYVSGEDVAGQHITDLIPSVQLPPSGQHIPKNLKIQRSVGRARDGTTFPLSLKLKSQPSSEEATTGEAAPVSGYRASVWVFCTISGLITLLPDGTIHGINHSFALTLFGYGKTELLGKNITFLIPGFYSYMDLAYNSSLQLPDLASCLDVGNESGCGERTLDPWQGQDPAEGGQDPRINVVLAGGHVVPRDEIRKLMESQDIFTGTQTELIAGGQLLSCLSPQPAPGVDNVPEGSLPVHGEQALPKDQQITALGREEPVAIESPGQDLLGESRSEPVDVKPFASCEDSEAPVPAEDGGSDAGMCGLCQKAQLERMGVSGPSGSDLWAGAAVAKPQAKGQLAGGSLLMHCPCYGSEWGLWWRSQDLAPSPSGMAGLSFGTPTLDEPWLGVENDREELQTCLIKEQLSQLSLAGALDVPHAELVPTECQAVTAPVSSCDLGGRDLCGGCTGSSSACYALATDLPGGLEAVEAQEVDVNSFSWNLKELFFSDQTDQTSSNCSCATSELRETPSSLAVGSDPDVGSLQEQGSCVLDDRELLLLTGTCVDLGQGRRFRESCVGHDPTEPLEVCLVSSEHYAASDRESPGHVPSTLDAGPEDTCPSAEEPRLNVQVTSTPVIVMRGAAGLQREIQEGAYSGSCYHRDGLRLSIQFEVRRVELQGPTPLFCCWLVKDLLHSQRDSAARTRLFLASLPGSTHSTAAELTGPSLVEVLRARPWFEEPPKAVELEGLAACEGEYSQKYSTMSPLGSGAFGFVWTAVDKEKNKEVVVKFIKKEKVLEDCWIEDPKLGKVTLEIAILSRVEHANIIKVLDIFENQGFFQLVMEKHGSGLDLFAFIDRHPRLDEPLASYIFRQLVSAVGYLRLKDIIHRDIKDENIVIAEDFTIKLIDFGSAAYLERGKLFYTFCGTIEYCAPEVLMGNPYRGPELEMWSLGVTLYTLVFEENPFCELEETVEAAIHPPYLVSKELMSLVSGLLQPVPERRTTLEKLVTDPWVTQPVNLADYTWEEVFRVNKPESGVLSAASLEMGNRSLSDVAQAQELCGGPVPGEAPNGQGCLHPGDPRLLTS

T1 sequence (Q96RG2 879-1323, stated change not applied): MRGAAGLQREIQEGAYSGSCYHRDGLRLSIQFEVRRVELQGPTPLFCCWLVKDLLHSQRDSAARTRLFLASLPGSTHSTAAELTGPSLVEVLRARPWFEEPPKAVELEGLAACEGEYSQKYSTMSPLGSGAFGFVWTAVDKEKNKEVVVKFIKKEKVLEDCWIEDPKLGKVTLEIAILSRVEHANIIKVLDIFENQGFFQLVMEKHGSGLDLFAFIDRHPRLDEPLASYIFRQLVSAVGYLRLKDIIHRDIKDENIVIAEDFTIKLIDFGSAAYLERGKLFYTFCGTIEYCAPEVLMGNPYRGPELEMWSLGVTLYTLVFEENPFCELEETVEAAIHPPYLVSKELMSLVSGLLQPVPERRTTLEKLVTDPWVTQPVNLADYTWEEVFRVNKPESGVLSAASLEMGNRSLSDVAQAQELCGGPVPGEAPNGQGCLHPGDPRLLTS
T2 sequence (Q96RG2 999-1251 limits assumed): as the sequence (Q96RG2 999-1251 limits assumed) above

| Structure (SMILES) | IC50 (PASK) [µM] | IC50 (PASK (Invitrogen)) [µM] | IC50 (hPASK [1]) [µM] | IC50 (hPASK [2]) [µM] |
| --- | --- | --- | --- | --- |
| Fc1ccc(-c2nc3ccc(-c4nnn[nH]4)cc3nc2-c2ccc(F)cc2)cc1 [Example 25, 2,3-Bis(4-fluorophenyl)-6-(1H-tetrazol-5-yl) quinoxaline] | ≤ 10 | – | – | – |
| CC(C)N(C)c1nc2cc(-c3nnn[nH]3)ccc2nc1-c1cc2cc(F)ccc2o1 [Example 33, 3-(5-Fluorobenzofuran-2-yl)-N-methyl-N-(propan-2-yl)-7-(1H-tetrazol-5-yl)quinoxalin-2-amine] | – | ≤ 10 | – | – |
| CC[C@@H](C)N(C)c1nc2cc(-c3nnn[nH]3)ccc2nc1-c1ccc(F)cc1 [Example 30, (R)—N-sec-Butyl-3-(4-fluorophenyl)-N-methyl-7-(1H-tetrazol-5-yl)quinoxalin-2-amine] | – | ≤ 10 | – | – |
| Cc1[nH]c2ccc(-c3nc4ccc(-c5nnn[nH]5)cc4nc3N(C)C(C)C)cc2c1C(=O)C(F)(F)F [Example 24, 2,2,2-Trifluoro-1-(5-(3-(isopropyl(methyl)amino)-6-(1H-tetrazol-5-yl)quinoxalin-2-yl)-2-methyl-1H-indol-3-yl)ethanone] | – | ≤ 10 | – | – |
| CCc1ccc(-c2nc3ccc(-c4nnn[nH]4)cc3nc2-c2ccc(CC)cc2)cc1 [Example 27, 2,3-Bis(4-ethylphenyl)-6-(1H-tetrazol-5-yl)quinoxaline] | ≤ 10 | – | – | – |
| Cc1cc2cc(-c3nc4ccc(-c5nnn[nH]5)cc4nc3N(C)C(C)C)ccc2[nH]1 [Example 32, N-Isopropyl-N-methyl-3-(2-methyl-1H-indol-5-yl)-7-(1H-tetrazol-5-yl)quinoxalin-2-amine] | ≤ 10 | ≤ 10 | – | – |
| CC(C)N(C)c1nc2cc(-c3nn[nH]n3)ccc2nc1-c1ccc(F)cc1 [Example 28, 3-(4-Fluorophenyl)-N-isopropyl-N-methyl-7-(2H-tetrazol-5-yl)quinoxalin-2-amine] | ≤ 10 | ≤ 10 | – | – |
| CC(C)N(C)c1nc2cc(C(N)=O)ccc2nc1-c1ccc(F)cc1 [Example 1, 2-(4-Fluorophenyl)-3-(isopropyl(methyl)amino)quinoxaline-6-carboxamide] | ≤ 10 | ≤ 10 | – | ≤ 10 |
| CC(C)N(C)c1nc2cc(-c3nnn[nH]3)ccc2nc1-c1ccc2[nH]ncc2c1 [Example 31, 3-(1H-Indazol-5-yl)-N-methyl-N-(propan-2-yl)-7-(1H-tetrazol-5-yl)quinoxalin-2-amine] | – | ≤ 10 | – | – |
| C[C@H]1CCCN1c1nc2cc(-c3nn[nH]n3)ccc2nc1-c1ccc(F)cc1 [Example 29, (S)-2-(4-Fluorophenyl)-3-(2-methylpyrrolidin-1-yl)-6-(2H-tetrazol-5-yl)quinoxaline] | ≤ 10 | ≤ 10 | – | – |
| COc1ccc(-c2nc3ccc(-c4nnn[nH]4)cc3nc2-c2ccc(OC)cc2)cc1 [Example 26, 2,3-Bis(4-methoxyphenyl)-6-(1H-tetrazol-5-yl)quinoxaline] | ≤ 10 | ≤ 10 | – | – |

Continued, values first:

| IC50 (PASK) [µM] | IC50 (PASK (Invitrogen)) [µM] | IC50 (hPASK [1]) [µM] | IC50 (hPASK [2]) [µM] | Structure (SMILES) |
| --- | --- | --- | --- | --- |
| – | – | ≤ 10 | – | COc1ccc(-c2nc3ccc(S(N)(=O)=O)cc3nc2-c2ccc(OC)cc2)cc1 [Example 35, 2,3-Bis(4-methoxyphenyl)quinoxaline-6-sulfonamide] |
| ≤ 10 | – | ≤ 10 | – | COc1ccc(-c2nc3ccc(NS(C)(=O)=O)cc3nc2-c2ccc(OC)cc2)cc1 [Example 34, N-(2,3-Bis(4-methoxyphenyl)quinoxalin-6-yl)methanesulfonamide] |
| – | – | > 10 | – | CNS(=O)(=O)c1ccc2nc(-c3ccc(OC)cc3)c(-c3ccc(OC)cc3)nc2c1 [Example 36, 2,3-Bis(4-methoxyphenyl)-N-methylquinoxaline-6-sulfonamide] |
| – | – | ≤ 10 | – | COc1ccc(-c2nc3ccc(S(=O)(=O)N4CCOCC4)cc3nc2-c2ccc(OC)cc2)cc1 [Example 37, 4-(2,3-Bis(4-methoxyphenyl)quinoxalin-6-ylsulfonyl)morpholine] |
| – | ≤ 10 | – | – | COc1ccc(-c2nc3ccc(S(=O)(=O)O)cc3nc2-c2ccc(OC)cc2)cc1 [Example 38, 2,3-Bis(4-methoxyphenyl)quinoxaline-6-sulfonic acid] |
